Measurements reported in ChEMBL document CHEMBL3774390, “Azide-enolate 1,3-dipolar cycloaddition in the synthesis of novel triazole-based miconazole analogues as promising antifungal agents” (2016).
In brackets after ≈: the same amount, converted by molar mass.

Columns and labels:
Format in all cases: functional
Candida albicans = test: Antifungal activity against Candida albicans ATCC 10231 by M27-A3 protocol-based broth microdilution method
Rhizopus arrhizus = test: Antifungal activity against Rhizopus oryzae ATCC 10329 by M38-A protocol-based microdilution method
Mucor hiemalis = test: Antifungal activity against Mucor hiemalis ATCC 8690 by M38-A protocol-based microdilution method
Aspergillus fumigatus = test: Antifungal activity against Aspergillus fumigatus ATCC 16907 by M38-A protocol-based broth microdilution method
[1] = Antifungal activity against Trichosporon cutaneum ATCC 28592 by M38-A protocol-based microdilution method; settings: Cutaneotrichosporon cutaneum
Candida tropicalis = test: Antifungal activity against Candida tropicalis ATCC 13803 by M27-A3 protocol-based broth microdilution method
Cyberlindnera jadinii = test: Antifungal activity against Candida utilis ATCC 9226 by M27-A3 protocol-based broth microdilution method; settings: Williopsis jadinii

Compound	MIC (Candida albicans) [µg/mL]	MIC (Rhizopus arrhizus) [µg/mL]	MIC (Mucor hiemalis) [µg/mL]	MIC (Aspergillus fumigatus) [µg/mL]	MIC [1] [µg/mL]	MIC (Candida tropicalis) [µg/mL]	MIC (Cyberlindnera jadinii) [µg/mL]
CCCCCc1c(S(=O)(=O)c2ccccc2)nnn1C(Cn1ccnc1)c1ccc(Cl)cc1Cl (stereo unspecified)	0.06 (≈ 0.116 µM)	0.5 (≈ 0.964 µM)	0.25 (≈ 0.482 µM)	2 (≈ 3.86 µM)	0.12 (≈ 0.231 µM)	0.06 (≈ 0.116 µM)	0.25 (≈ 0.482 µM)
CC(=O)c1nnn(C(Cn2ccnc2)c2ccc(Cl)cc2Cl)c1C (stereo unspecified)	16 (≈ 43.9 µM)	8 (≈ 22 µM)	16 (≈ 43.9 µM)	16 (≈ 43.9 µM)	16 (≈ 43.9 µM)	16 (≈ 43.9 µM)	16 (≈ 43.9 µM)
O=C(c1ccccc1)c1nnn(C(Cn2ccnc2)c2ccc(Cl)cc2Cl)c1-c1ccccc1 (stereo unspecified)	0.03 (≈ 0.0614 µM)	8 (≈ 16.4 µM)	16 (≈ 32.8 µM)	16 (≈ 32.8 µM)	16 (≈ 32.8 µM)	0.06 (≈ 0.123 µM)	16 (≈ 32.8 µM)
CCC(C)n1ncn(-c2ccc(N3CCN(c4ccc(OCC5COC(Cn6cncn6)(c6ccc(Cl)cc6Cl)O5)cc4)CC3)cc2)c1=O (stereo unspecified) [ITRACONAZOLE]	0.03 (≈ 0.0425 µM)	0.5 (≈ 0.709 µM)	1 (≈ 1.42 µM)	0.25 (≈ 0.354 µM)	1 (≈ 1.42 µM)	0.03 (≈ 0.0425 µM)	0.06 (≈ 0.085 µM)

Second part, the compound after the results:

MIC (Candida albicans) [µg/mL]	MIC (Rhizopus arrhizus) [µg/mL]	MIC (Mucor hiemalis) [µg/mL]	MIC (Aspergillus fumigatus) [µg/mL]	MIC [1] [µg/mL]	MIC (Candida tropicalis) [µg/mL]	MIC (Cyberlindnera jadinii) [µg/mL]	Compound
0.03 (≈ 0.0738 µM)	8 (≈ 19.7 µM)	16 (≈ 39.4 µM)	0.5 (≈ 1.23 µM)	8 (≈ 19.7 µM)	0.03 (≈ 0.0738 µM)	2 (≈ 4.92 µM)	CCCCC(C)(C)c1cnnn1C(Cn1ccnc1)c1ccc(Cl)cc1Cl (stereo unspecified)
16 (≈ 39.1 µM)	16 (≈ 39.1 µM)	16 (≈ 39.1 µM)	16 (≈ 39.1 µM)	16 (≈ 39.1 µM)	16 (≈ 39.1 µM)	16 (≈ 39.1 µM)	N#Cc1nnn(C(Cn2ccnc2)c2ccc(Cl)cc2Cl)c1-c1ccccc1 (stereo unspecified)
16 (≈ 41 µM)	2 (≈ 5.12 µM)	0.12 (≈ 0.307 µM)	16 (≈ 41 µM)	16 (≈ 41 µM)	8 (≈ 20.5 µM)	16 (≈ 41 µM)	Clc1ccc(C(Cn2ccnc2)n2nncc2C2CCCCC2)c(Cl)c1 (stereo unspecified)
4 (≈ 9.29 µM)	16 (≈ 37.2 µM)	16 (≈ 37.2 µM)	16 (≈ 37.2 µM)	16 (≈ 37.2 µM)	1 (≈ 2.32 µM)	16 (≈ 37.2 µM)	CSc1ccc(-c2cnnn2C(Cn2ccnc2)c2ccc(Cl)cc2Cl)cc1 (stereo unspecified)
